Laboratory results reported in patent US20110224256A1, “T[…] THE TREATMENT OF PSYCHIATRIC DISORDERS” (priority 2008, published 2011).
Several values for one entry are separate records, joined by “and”; a condition that tells them apart may be missing. Identical values can stand only once. Entries after “also recorded” stand apart in the source; their conditions may differ. Counter-ions that a name gives are not always drawn.

Assays:
D2 dopamine receptor = D2 dopamine receptor binding in the striatum by quantitative autoradiography after juvenile methylphenidate; format: in vivo, rats; details: 40 days of age, postnatal day 20-35
Method: FIG. 7. In this study, rats were administered a dosage of 2 mg/kg methylphenidate either by osmotic minipump (continuous release) or twice daily by interperitoneal injection (intermittent) between the ages of postnatal day 20-35. D2 dopamine receptor binding was assessed in the striatum at 40 days of age using quantitative autoradiography (see Andersen et al., Synapse 37:167-169 (2000)).

BDNF = BDNF mRNA and protein in MPH-exposed subjects after cocaine challenge; format: in vivo, rats; details: in response to cocaine challenge, preliminary, data not shown
Source text: Changes in D3 expression and function may signal a sensitive period of development, when drug imprinting is likely to occur (Andersen, Trends Pharmacol. Sci., 26:237-243 (2005)). Drug-induced perturbations before the completion of dopamine receptor development may prevent these developmental rearrangements.

D3 receptor mRNA = D3 receptor mRNA by Q-PCR after juvenile drug exposure; format: in vivo, Sprague-Dawley rats; details: for reduction in D3 receptor mRNA: MPH 2 mg/kg i.p. twice daily P20-P35, HCl
Sprague-Dawley male rats = test: Place conditioning to 10 mg/kg cocaine at P60 after juvenile drug exposure; format: in vivo; details: juvenile exposure P20-P35: MPH 2 mg/kg, ±7-OHDPAT 0.3 mg/kg, or MPH 2 mg/kg + Naf 0.05 mg/kg; tested at P60; HCl
Method: Juvenile Sprague-Dawley male rats were treated with MPH (2 mg/kg, i.p. twice daily), ±7-OHDPAT (0.3 mg/kg, i.p. twice daily), Naf (0.05, 0.5 and 5 mg/kg; i.p. twice daily) or VEH (i.p. twice daily) between the ages of P20 and P35 (Andersen et al., Nat. Neurosci., 5:13-14 (2002)). The MPH dose was selected on the basis of previous studies (see Andersen et al., Nat. Neurosci., 5:13-14 (2002); Bolanos et al., Biol. Psychiatry, 54:1317-1329 (2003); and Mague et al., Biol. Psychiatry, 57:120-125 (2005)), unpublished observations that we find similar behavioral effects if MPH is given i.p. or orally at this dose, and evidence that it approximates a clinically relevant dose in humans based on plasma levels (see Wargin et al., J. Pharmacol. Exp. Ther., 226:382-386 (1983); and Kuczenski, R. & Segal, D. S. J. Neurosci., 22:7264-7271 (2002)). Clinically therapeutic doses of MPH yield plasma levels between 8 and 40 ng/mL (Swanson et al., Behay. Brain Res., 130:73-78 (2002); Teicher et al., Ann. N. Y. Acad. Sci., 1071:313-323 (2006)), with 0.5 mg/kg i.p., achieving plasma levels of 36 ng/mL within 5 min in rats (Berridge et al., Biol. Psychiatry, 60:1111-1120 (2006)). Doses for juvenile exposure to ±7-OHDPAT are based on Neisewander et al., Neuropsychopharmacology, 29:1479-1487 (2004), and cortical microinjections of 10 µg/side were derived from Boulay et al. Prog. Neuropsychopharmacol. Biol. Psychiatry, 24:39-49 (2000). Naf doses below 1 mg/kg have negligible D2 receptor occupancy (Sautel et al., J. Pharmacol. Exp. Ther., 275:1239-1246 (1995)) and are behaviorally effective (Richtand et al., Brain Res., 867:239-242 (2000)). Subjects were weighed daily at 09.00 h and injected with their assigned drug; the second injection was administered 4 h later at 13.00 h. This regimen is designed to match the twice-daily dosing used by children, taking into account the higher metabolic rates of rats (Wargin et al., J. Pharmacol. Exp. Ther., 226:382-386 (1983)). After the second drug administration on P35, the rats received no further treatments until behavioral testing at P60.
Rats treated between P20 and P35 with either Naf (0, 0.05, 0.5 or 5.0 mg/kg; n=7-9), ±7-OHDPAT (0.3 mg/kg; n=9), MPH (2 mg/kg; n=9), or a combination of 2 mg/kg MPH and 0.05 mg/kg Naf (MPH/Naf; n=8) were tested at P60 for place conditioning to 10 mg/kg cocaine. According to standard laboratory methods (Andersen et al., Nat. Neurosci., 5:13-14 (2002); Carlezon, Methods Mol. Med., 84:243-249 (2003)), unbiased place conditioning chambers consisted of two large (24×18×33) side compartments separated by a small (12×18×33 cm) middle compartment. Screening was conducted for 30 min on Day 1. Rats were placed in the middle compartment and allowed to freely explore the apparatus. […] Two days of conditioning (with two sessions per day) occurred on Days 2 and 3 for 60 min (Andersen et al., Nat. Neurosci., 5:13-14 (2002); Carlezon, Methods Mol. Med., 84:243-249 (2003)). During the conditioning sessions, rats received a 1 mL/kg i.p. injection of VEH in the morning (09.00 h) and confined to one side. The rats were then returned to the home cage. Four hours later, rats received 10 mg/kg cocaine and confined to the other side. Sides differed in floor texture, wall colors and lighting, and assignments were counterbalanced. On Day 4, rats were permitted to freely explore the entire apparatus for 30 min in a drug-free state.

[1] = 0.5 mg/kg i.p., within 5 min, rats; cited from earlier work

## COC(=O)C(c1ccccc1)C1CCCCN1 (stereo not drawn) [MPH, d,l-Methylphenidate HCl]
D2 dopamine receptor; 2 mg/kg by osmotic minipump (continuous release)
  D2 receptor density: but not when administered by continuous release
D2 dopamine receptor; 2 mg/kg twice daily by intraperitoneal injection (intermittent)
  D2 receptor density: reduced significantly
BDNF
  BDNF mRNA: reduced
  BDNF protein levels: modestly, but significantly, lower
D3 receptor mRNA; MPFCx, assessed at P40
  reduction in D3 receptor mRNA: 28.9±8.3% and 28.9%
D3 receptor mRNA; MPFCx, corrected by GAPDH, juvenile MPH 2 mg/kg or MPH + 0.05 mg/kg Naf, F3,20=8.76, P<0.001
  D3 mRNA levels in the place-conditioned animals: significantly changed
D3 receptor mRNA; MPFCx, relative to VEH controls, 25 days post-exposure (P60)
  reduction in D3 receptor mRNA: 23.8±6.7% and 23.8%
D3 receptor mRNA; accumbens or striatum, MPH-exposed, P>0.5
  D3 mRNA change: did not change
Sprague-Dawley male rats
  place conditioning to 10 mg/kg cocaine associated environment (pre- vs. post-conditioning): Place aversion; also recorded: aversion to the cocaine-associated environment
[1]
  plasma levels: 36 ng/mL
